Test results as given in ChEMBL document CHEMBL2375247, “Synthesis and evaluation of 3-(benzylthio)-5-(1H-indol-3-yl)-1,2,4-triazol-4-amines as Bcl-2 inhibitory anticancer agents” (Bioorg Med Chem Lett, 2013).

Columns and labels:
[1] = test system: Jurkat; experiment: Cytotoxicity against human Jurkat cells after 24 hrs by CellTitre-Blue assay; format: functional, cell-based
[2] = test system: HeLa; experiment: Cytotoxicity against human HeLa cells after 72 hrs by MTT assay; format: functional, cell-based
[3] = Cytotoxicity against human KG1a cells after 24 hrs by CellTitre-Blue assay; format: functional, cell-based; conditions: KG-1a
[4] = test system: MDA-MB-231; experiment: Cytotoxicity against human MDA-MB-231 cells after 72 hrs by MTT assay; format: functional, cell-based; conditions: MDA-MB-231, 72 h
[5] = target: Apoptosis regulator Bcl-2 (Homo sapiens, UniProt P10415); experiment: Competitive binding affinity to his-tagged Bcl-2 (unknown origin) after 1 hr by ELISA in presence of Bim peptide
Chain of Apoptosis regulator Bcl-2 (P10415 whole entry): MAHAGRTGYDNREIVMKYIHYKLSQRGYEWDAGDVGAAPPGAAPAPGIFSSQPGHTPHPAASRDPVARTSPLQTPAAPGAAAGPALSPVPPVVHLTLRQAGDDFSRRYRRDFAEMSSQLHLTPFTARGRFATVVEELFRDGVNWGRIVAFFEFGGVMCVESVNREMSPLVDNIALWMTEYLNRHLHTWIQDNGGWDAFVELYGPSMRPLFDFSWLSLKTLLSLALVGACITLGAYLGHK

IC50 [5] [µM] | Compound | IC50 [1] [µM] | IC50 [2] [µM] | IC50 [3] [µM] | IC50 [4] [µM]
 | Nn1c(SCc2ccc([N+](=O)[O-])cc2)nnc1-c1c[nH]c2ccccc12 | > 100 | 0.25 | 6.9 | 0.74
 | Nn1c(SCc2ccccc2)nnc1-c1c[nH]c2ccccc12 | > 100 | 2.3 | 17.2 | 26.5
 | Cc1ccc(CSc2nnc(-c3c[nH]c4ccccc34)n2N)cc1 | > 100 | 5.38 | > 100 | 10.5
 | Nn1c(SCc2ccc(F)cc2)nnc1-c1c[nH]c2ccccc12 | > 100 | 0.29 | 13.2 | 1.35
1.43 | Nn1c(SCc2cccc([N+](=O)[O-])c2)nnc1-c1c[nH]c2ccccc12 | > 100 | 0.4 | 0.65 | 0.31
 | Nn1c(SCc2ccccc2[N+](=O)[O-])nnc1-c1c[nH]c2ccccc12 | > 100 | 2.52 | 20.8 | 9.52
 | COc1cccc(CSc2nnc(-c3c[nH]c4ccccc34)n2N)c1 | > 100 | 1.73 | 12.9 | 15.6
 | COc1ccc(CSc2nnc(-c3c[nH]c4ccccc34)n2N)cc1 | > 100 | 0.75 | > 100 | 1.7
 | Nn1c(SCc2ccc(Br)cc2)nnc1-c1c[nH]c2ccccc12 | > 100 | 8 | 55.8 | 71.4
